# Measurements: patent US11746100B2 (GLOBAL BLOOD THERAPEUTICS, INC., priority 2020, dated 2023)
# Target: T1, human ferroportin (Homo sapiens, UniProt Q9NP59)
# T1 construct: luciferase reporter (read with the Nano-Glo Luciferase Assay System); expressed in transfected cells; host or cells: CHO cells, stably transfected, expression induced with doxycycline
# T1 sequence (Q9NP59 1-571): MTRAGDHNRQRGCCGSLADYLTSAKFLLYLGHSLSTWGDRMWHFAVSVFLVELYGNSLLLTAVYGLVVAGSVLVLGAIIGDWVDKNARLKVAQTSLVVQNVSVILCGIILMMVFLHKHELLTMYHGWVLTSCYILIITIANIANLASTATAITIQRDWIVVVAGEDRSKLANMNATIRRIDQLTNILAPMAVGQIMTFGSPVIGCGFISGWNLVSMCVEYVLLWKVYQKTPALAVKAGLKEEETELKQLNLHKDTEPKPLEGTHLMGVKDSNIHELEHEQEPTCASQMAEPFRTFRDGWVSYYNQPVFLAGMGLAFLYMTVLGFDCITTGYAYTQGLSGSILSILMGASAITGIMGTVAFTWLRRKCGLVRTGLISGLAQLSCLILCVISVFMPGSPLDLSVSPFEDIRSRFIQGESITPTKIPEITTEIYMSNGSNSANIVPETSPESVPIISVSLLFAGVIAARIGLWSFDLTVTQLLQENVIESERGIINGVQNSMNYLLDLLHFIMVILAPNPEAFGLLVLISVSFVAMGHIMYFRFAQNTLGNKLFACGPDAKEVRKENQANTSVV
# Assay: Biological in-vitro ferroportin internalization assay (luciferase reporter)
# Assay type: cell-based
# Settings: average pEC50; stably-transfected CHO cell line expressing human ferroportin tagged to a luciferase reporter; 6 h incubation with test compound
# How it was run: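 Stably transfected CHO cells expressing luciferase-tagged human ferroportin, plated 24 h with ferric ammonium citrate and induced with doxycycline for 24 h. Compounds incubated 6 h, then luciferase activity measured by Nano-Glo; average pEC50 reported.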
row,pEC50,Compound
1,7.6,"COc1ccc2cnc(-c3nc4c(c(N(C)CC(=O)NC(C)(C)C)n3)CCC4)cc2c1 [Compound 261, N-tert-butyl-2-{[2-(6-methoxyisoquinolin-3-yl)-5H,6H,7H-cyclopenta[d]pyrimidin-4-yl](methyl)amino}acetamide]"
2,7.1,"COc1ccc2cc(-c3nc4c(c(N(C)CC(=O)NC(C)(C)C)n3)CCC4)ncc2c1 [Compound 262, N-tert-butyl-2-{[2-(7-methoxyisoquinolin-3-yl)-5H,6H,7H-cyclopenta[d]pyrimidin-4-yl](methyl)amino}acetamide]"
3,8,"CN(CC(=O)N1CCCCC1)c1nc(-c2cc(OCCO)ccn2)nc2c1CCC2 [Compound 263, 2-({2-[4-(2-hydroxyethoxy)pyridin-2-yl]-5H,6H,7H-cyclopenta[d]pyrimidin-4-yl}(methyl)amino)-1-(piperidin-1-yl)ethan-1-one]"
4,6.5,"CN(CC(=O)Nc1ccc(F)nc1)c1nc(-c2cc3cnn(C4CCCCO4)c3cn2)nc2c1CCC2 (stereo not shown) [Compound 264, N-(6-fluoropyridin-3-yl)-2-[methyl({2-[1-(oxan-2-yl)-1H-pyrazolo[3,4-c]pyridin-5-yl]-5H,6H,7H-cyclopenta[d]pyrimidin-4-yl})amino]acetamide]"
5,7.3,"CN(CC(=O)Nc1ccc(F)nc1)c1nc(-c2cc3cn[nH]c3cn2)nc2c1CCC2 [Compound 266, N-(6-fluoropyridin-3-yl)-2-[methyl(2-{1H-pyrazolo[3,4-c]pyridin-5-yl}-5H,6H,7H-cyclopenta[d]pyrimidin-4-yl)amino]acetamide]"
6,7.1,"Cc1ccc(NC(=O)CN(C)c2nc(-c3cc4cn[nH]c4cn3)nc3c2CCC3)cn1 [Compound 267, 2-[methyl(2-{1H-pyrazolo[3,4-c]pyridin-5-yl}-5H,6H,7H-cyclopenta[d]pyrimidin-4-yl)amino]-N-(6-methylpyridin-3-yl)acetamide]"
7,6,"COc1ccc(NC(=O)CN(C)c2nc(-c3cc4ccncc4cn3)nc3c2CCC3)cn1 [Compound 268, N-(6-methoxypyridin-3-yl)-2-{methyl[2-(2,7-naphthyridin-3-yl)-5H,6H,7H-cyclopenta[d]pyrimidin-4-yl]amino}acetamide]"
8,8.4,"COc1ccc(NC(=O)CN(C)c2nc(-c3cc(OCCO)ccn3)nc3c2CCC3)cc1 [Compound 269, 2-({2-[4-(2-hydroxyethoxy)pyridin-2-yl]-5H,6H,7H-cyclopenta[d]pyrimidin-4-yl}(methyl)amino)-N-(4-methoxyphenyl)acetamide]"
9,7.5,"Cc1ccc(NC(=O)CN(C)c2nc(-c3cc4c(CO)cccc4cn3)nc3c2CCC3)cn1 [Compound 270, 2-({2-[5-(hydroxymethyl)isoquinolin-3-yl]-5H,6H,7H-cyclopenta[d]pyrimidin-4-yl}(methyl)amino)-N-(6-methylpyridin-3-yl)acetamide]"
10,7.4,"CN(CC(=O)Nc1cccc(F)c1)c1nc(-c2cn(C)cn2)nc2c1CCC2 [Compound 271, N-(3-fluorophenyl)-2-{methyl[2-(1-methyl-1H-imidazol-4-yl)-5H,6H,7H-cyclopenta[d]pyrimidin-4-yl]amino}acetamide]"
11,7.8,"COc1cccc(NC(=O)CN(C)c2nc(-c3cn(C)cn3)nc3c2CCC3)c1 [Compound 272, N-(3-methoxyphenyl)-2-{methyl[2-(1-methyl-1H-imidazol-4-yl)-5H,6H,7H-cyclopenta[d]pyrimidin-4-yl]amino}acetamide]"
12,7.8,"C[C@H](C(=O)Nc1ccnnc1)N(C)c1nc(-c2cc3ccccc3cn2)nc2c1CCC2 [Compound 273, (2R)-2-{[2-(isoquinolin-3-yl)-5H,6H,7H-cyclopenta[d]pyrimidin-4-yl](methyl)amino}-N-(pyridazin-4-yl)propanamide]"
13,6.8,"C[C@H](C(=O)Nc1ccc(C(F)(F)F)nc1)N(C)c1nc(-c2cc3ccccc3cn2)nc2c1CCC2 [Compound 274, (2R)-2-{[2-(isoquinolin-3-yl)-5H,6H,7H-cyclopenta[d]pyrimidin-4-yl](methyl)amino}-N-[6-(trifluoromethyl)pyridin-3-yl]propanamide]"
14,7,"CN(CC(=O)NC(C)(C)CO)c1nc(-c2cn(CCCO)cn2)nc2c1CCC2 [Compound 275, N-(1-hydroxy-2-methylpropan-2-yl)-2-({2-[1-(3-hydroxypropyl)-1H-imidazol-4-yl]-5H,6H,7H-cyclopenta[d]pyrimidin-4-yl}(methyl)amino)acetamide]"
15,7.7,"COc1ncc(NC(=O)CN(C)c2nc(-c3cc(OC(C)(C)CO)ccn3)nc3c2CCC3)cn1 [Compound 276, 2-[(2-{4-[(1-hydroxy-2-methylpropan-2-yl)oxy]pyridin-2-yl}-5H,6H,7H-cyclopenta[d]pyrimidin-4-yl)(methyl)amino]-N-(2-methoxypyrimidin-5-yl)acetamide]"
16,8.2,"C[C@H](C(=O)Nc1cccc(F)c1)N(C)c1nc(-c2cn(C)cn2)nc2c1CCC2 [Compound 277, (2R)—N-(3-fluorophenyl)-2-{methyl[2-(1-methyl-1H-imidazol-4-yl)-5H,6H,7H-cyclopenta[d]pyrimidin-4-yl]amino}propanamide]"
17,7.8,"COc1cccc(NC(=O)[C@@H](C)N(C)c2nc(-c3cn(C)cn3)nc3c2CCC3)c1 [Compound 278, (2R)—N-(3-methoxyphenyl)-2-{methyl[2-(1-methyl-1H-imidazol-4-yl)-5H,6H,7H-cyclopenta[d]pyrimidin-4-yl]amino}propanamide]"
18,8.2,"COc1cccc(NC(=O)CN(C)c2nc(-c3cc(OCCO)ccn3)nc3c2CCC3)c1 [Compound 279, 2-({2-[4-(2-hydroxyethoxy)pyridin-2-yl]-5H,6H,7H-cyclopenta[d]pyrimidin-4-yl}(methyl)amino)-N-(3-methoxyphenyl)acetamide]"
19,8.3,"CN(CC(=O)Nc1cccc(F)c1)c1nc(-c2cc(OCC(C)(C)O)ccn2)nc2c1CCC2 [Compound 280, N-(3-fluorophenyl)-2-({2-[4-(2-hydroxy-2-methylpropoxy)pyridin-2-yl]-5H,6H,7H-cyclopenta[d]pyrimidin-4-yl}(methyl)amino)acetamide]"
20,7.3,"COc1ccnc(-c2nc3c(c(N(C)CC(=O)Nc4ccc(=O)n(C)c4)n2)CCC3)c1 [Compound 281, 2-{[2-(4-methoxypyridin-2-yl)-5H,6H,7H-cyclopenta[d]pyrimidin-4-yl](methyl)amino}-N-(1-methyl-6-oxo-1,6-dihydropyridin-3-yl)acetamide]"
21,7.5,"CN(CC(=O)Nc1cccc(F)c1)c1nc(-c2cc3c(cn2)OCCO3)nc2c1CCC2 [Compound 282, 2-[(2-{2H,3H-[1,4]dioxino[2,3-c]pyridin-7-yl}-5H,6H,7H-cyclopenta[d]pyrimidin-4-yl)(methyl)amino]-N-(3-fluorophenyl)acetamide]"
22,6.6,"CN(CC(=O)Nc1cncc(OC(F)(F)F)c1)c1nc(-c2cc3ccccc3cn2)nc2c1CCC2 [Compound 283, 2-{[2-(isoquinolin-3-yl)-5H,6H,7H-cyclopenta[d]pyrimidin-4-yl](methyl)amino}-N-[5-(trifluoromethoxy)pyridin-3-yl]acetamide]"
23,7.7,"Cc1cnc(NC(=O)CN(C)c2nc(-c3cc(OCCO)ccn3)nc3c2CCC3)cn1 [Compound 284, 2-({2-[4-(2-hydroxyethoxy)pyridin-2-yl]-5H,6H,7H-cyclopenta[d]pyrimidin-4-yl}(methyl)amino)-N-(5-methylpyrazin-2-yl)acetamide]"
24,7.8,"COc1ccc(NC(=O)CN(C)c2nc(-c3cc(OCCO)ccn3)nc3c2CCC3)nn1 [Compound 285, 2-({2-[4-(2-hydroxyethoxy)pyridin-2-yl]-5H,6H,7H-cyclopenta[d]pyrimidin-4-yl}(methyl)amino)-N-(6-methoxypyridazin-3-yl)acetamide]"
25,7.5,"Cc1ccc(NC(=O)CN(C)c2nc(-c3cc(OCCO)ccn3)nc3c2CCC3)nn1 [Compound 286, 2-({2-[4-(2-hydroxyethoxy)pyridin-2-yl]-5H,6H,7H-cyclopenta[d]pyrimidin-4-yl}(methyl)amino)-N-(6-methylpyridazin-3-yl)acetamide]"
26,7.2,"COc1ccnc(-c2nc3c(c(N(C)CC(=O)Nc4ccn(C)c(=O)c4)n2)CCC3)c1 [Compound 287, 2-{[2-(4-methoxypyridin-2-yl)-5H,6H,7H-cyclopenta[d]pyrimidin-4-yl](methyl)amino}-N-(1-methyl-2-oxo-1,2-dihydropyridin-4-yl)acetamide]"
27,7.1,"CN(CC(=O)Nc1ccc(C(F)(F)F)nc1)c1nc(-c2cc3cn[nH]c3cn2)nc2c1CCC2 [Compound 288, 2-[methyl(2-{1H-pyrazolo[3,4-c]pyridin-5-yl}-5H,6H,7H-cyclopenta[d]pyrimidin-4-yl)amino]-N-[6-(trifluoromethyl)pyridin-3-yl]acetamide]"
28,7.5,"CN(CC(=O)Nc1ccc(F)cc1)c1nc(-c2cc3cn[nH]c3cn2)nc2c1CCC2 [Compound 289, N-(4-fluorophenyl)-2-[methyl(2-{1H-pyrazolo[3,4-c]pyridin-5-yl}-5H,6H,7H-cyclopenta[d]pyrimidin-4-yl)amino]acetamide]"
